Test results reported in the supplement of paper PMC10307832.

How the values were obtained:
Assay in all cases: relative viability (nuclei count vs DMSO), 5 days (fraction); higher = more cells survive
[1] = compound: CCc1c2c(nc3ccc(OC(=O)N4CCC(N5CCCCC5)CC4)cc13)-c1cc3c(c(=O)n1C2)COC(=O)[C@]3(O)CC [Irinotecan] + O=C(CCCCCCC(=O)Nc1ccccc1)NO [Vorinostat] (partner 1 µM)
Outline: (§1)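 Relative viability was taken as the ratio of nuclei in treated wells to nuclei in vehicle wells. Lung cancer cell lines in 1536-well plates received compounds by pin tool one day after seeding, either one drug alone or a fixed anchor-drug dose plus five library-drug doses (not always all listed) in √10 steps. Nuclei were counted on 4× images after 5 days of treatment, and values are medians of duplicate plates.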

[2] = compound: CC[C@@H](C)CNCC(=O)N1CCC2=C([C@@H]1COC3=CC=CC(=C3)C)C=CS2 [RU-SKI 43] + O=C(CCCCCCC(=O)Nc1ccccc1)NO [Vorinostat] (partner 1 µM)
Outline: as §1

[3] = compound: CC[C@@H](C)CNCC(=O)N1CCC2=C([C@@H]1COC3=CC=CC(=C3)C)C=CS2 [RU-SKI 43] + CC1(C)CCC(c2ccc(Cl)cc2)=C(CN2CCN(c3ccc(C(=O)NS(=O)(=O)c4ccc(N[C@H](CCN5CCOCC5)CSc5ccccc5)c(S(=O)(=O)C(F)(F)F)c4)cc3)CC2)C1 [Navitoclax] (partner 0.5 µM)
Outline: as §1

| Cell Line | relative viability ([1]; first compound 0.6325 µM) | relative viability ([1]; first compound 2 µM) | relative viability ([1]; first compound 6.325 µM) | relative viability ([1]; first compound 20 µM) | relative viability ([2]; first compound 0.1 µM) | relative viability ([2]; first compound 0.3162 µM) | relative viability ([2]; first compound 1 µM) | relative viability ([2]; first compound 3.162 µM) | relative viability ([2]; first compound 10 µM) | relative viability ([3]; first compound 0.1 µM) | relative viability ([3]; first compound 0.3162 µM) | relative viability ([3]; first compound 1 µM) | relative viability ([3]; first compound 3.162 µM) | relative viability ([3]; first compound 10 µM) |
| --- | --- | --- | --- | --- | --- | --- | --- | --- | --- | --- | --- | --- | --- | --- |
| 201T | 0.325 | 0.81 | 0.426 | 0.28 | 0.968 | 1.17 | 1.09 | 1.06 | 0.957 | 1.2 | 1.18 | 1.21 | 1.19 | 1.18 |
| A549 |  |  |  |  |  |  |  |  |  | 1.24 | 1.51 | 1.17 | 1.23 | 1.08 |
| A-427 | 0.738 | 0.785 | 0.384 | 0.33 | 0.868 | 0.823 | 0.933 | 0.873 | 0.786 | 0.944 | 0.868 | 0.997 |  | 0.961 |
| ABC-1 |  | 0.566 | 0.405 | 0.348 | 0.964 | 1.08 | 1.27 | 1.01 | 1.16 |  |  |  |  |  |
| BEN | 0.544 | 0.726 | 0.473 | 0.545 | 0.621 | 0.531 | 0.665 | 0.639 | 0.546 | 0.0754 | 0.0554 | 0.064 | 0.0685 | 0.0709 |
| CAL-12T | 0.733 | 0.592 | 0.403 | 0.259 | 0.77 | 0.89 | 0.909 | 0.699 | 0.692 | 1.2 | 1.53 | 1.54 | 1.13 | 1.14 |
| COR-L23 | 0.169 | 0.184 | 0.199 | 0.0826 | 0.427 | 0.376 | 0.532 | 0.499 | 0.387 | 0.971 | 0.628 | 1.11 | 1.04 | 1.07 |
| COR-L 105 | 0.856 | 0.643 | 0.621 | 0.334 | 0.8 | 0.913 | 0.796 | 0.886 | 0.895 | 0.909 | 0.61 | 0.648 | 0.858 | 0.595 |
| Calu-6 |  |  |  |  |  |  |  |  |  | 0.848 | 0.977 | 0.72 | 0.955 | 0.691 |
| ChaGo-K-1 | 0.443 | 0.326 | 0.268 | 0.243 | 0.759 | 0.731 | 0.853 | 0.77 | 0.762 | 1.26 | 0.996 | 1.58 | 0.569 | 0.742 |
| EBC-1 |  |  |  |  |  |  |  |  |  | 0.358 | 0.294 | 0.401 | 0.366 | 0.223 |
| EKVX |  | 0.52 | 0.43 | 0.398 | 0.658 | 0.614 | 0.707 | 0.643 | 0.632 | 0.989 | 0.893 | 0.96 | 0.982 | 0.67 |
| EMC-BAC-2 | 0.224 | 0.297 | 0.283 | 0.225 | 0.526 | 0.362 | 0.79 | 0.375 | 0.521 | 1.14 | 1.57 | 1.21 | 1.26 | 1.15 |
| EPLC-272H | 0.428 | 0.389 | 0.357 | 0.254 | 0.467 | 0.384 | 0.426 | 0.401 | 0.31 | 1.17 | 1.12 | 1.03 |  | 1.13 |
| H3255 |  | 0.782 | 0.343 | 0.311 | 0.838 | 0.763 | 1.1 | 0.851 | 0.769 | 0.489 | 0.396 | 0.598 | 0.5 | 0.237 |
| HARA |  | 0.146 | 0.122 | 0.135 | 0.568 | 0.52 | 0.485 | 0.517 | 0.548 | 1.19 | 1.14 | 1.15 | 1.16 | 1.13 |
| HCC-15 | 0.452 | 0.333 | 0.252 | 0.197 | 0.808 | 0.932 | 0.881 | 0.839 | 0.869 | 0.769 | 0.81 | 0.715 | 0.757 | 0.735 |
| HCC-44 | 0.998 | 0.839 | 0.451 | 0.461 | 1.14 | 1.12 | 1.12 | 1.15 | 1.05 | 0.863 | 1.13 | 0.968 | 0.986 | 0.902 |
| HCC-78 | 0.56 | 0.322 | 0.291 | 0.288 | 0.531 | 0.378 | 0.469 | 0.475 | 0.439 | 0.758 | 0.96 | 1.03 | 0.834 | 0.772 |
| HCC-366 | 0.145 | 0.137 | 0.0609 | 0.069 | 0.276 | 0.493 | 0.439 | 0.438 | 0.328 | 1.04 | 1.5 | 1.06 | 1.18 | 1.05 |
| HCC-827 | 0.721 | 0.766 | 0.281 | 0.236 | 0.768 | 0.81 | 1.04 | 0.783 | 0.885 | 0.998 | 0.954 | 1.03 | 1.08 | 0.973 |
| HOP-62 | 0.234 | 0.311 | 0.167 | 0.188 | 0.563 | 0.693 | 0.632 | 0.724 | 0.639 | 1.22 | 1.26 | 1.21 | 1.14 | 1.06 |
| IA-LM |  | 0.619 | 0.251 | 0.0877 | 0.795 | 0.993 | 0.964 | 0.978 | 0.977 | 0.752 | 0.751 | 0.856 | 0.738 | 0.824 |
| LC-2-ad | 0.312 | 0.373 | 0.283 | 0.181 | 0.739 | 0.738 | 0.697 | 0.693 | 0.633 | 0.388 | 0.487 | 0.63 | 0.422 | 0.329 |
| LCLC-97TM1 | 0.104 | 0.248 | 0.114 | 0.129 | 0.741 | 0.705 | 0.823 | 0.629 | 0.669 | 0.197 |  | 0.336 | 0.399 | 0.396 |
| LCLC-103H | 0.449 | 0.554 | 0.623 | 0.563 | 0.804 | 0.821 | 0.855 | 0.781 | 0.729 |  |  |  |  |  |
